In patent US5436369A, “Alicyclic phospholipase A2 inhibitors” (Bristol-Myers Squibb Company, priority 1994, dated 1995):

biological target: T1, PLA2 (Homo sapiens, UniProt P14555); experiment: PLA2 Inhibition Assay (14C-oleate labeled E. coli membrane substrate); format: biochemical; conditions: Table 2, Structure 14 (Type IA); 100 μM; enzyme isolated from human platelets
T1 construct: The enzyme is isolated from human platelets; from tissue; host or cells: human platelets
T1 sequence (P14555 21-144): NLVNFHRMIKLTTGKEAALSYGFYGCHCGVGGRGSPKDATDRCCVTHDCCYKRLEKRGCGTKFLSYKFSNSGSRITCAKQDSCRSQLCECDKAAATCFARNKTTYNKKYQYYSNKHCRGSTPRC
Method: The method used is similar to that reported by Franson, et al. [Jesse, R. L. and Franson R. C., Biochim. Biophys. Acta 575:467-470 (1979); Franson, R. C., Patriarca, P., and Elsback, P., J. Lipid Res. 15: 380-388 (1974)]. The enzyme is isolated from human platelets. The substrate used consists of ^14 C-oleate labeled Escherichia coli membranes. E. coli cells are grown in the presence of ^14 C-oleic acid and then autoclaved to prepare the membranes.
Various concentrations of test compounds are pre-incubated with PLA2 (3.6 μg/mL in a buffer consisting of 25 mM HEPES (pH 7)), 150 mM NaCl, 5.0 mM CaCl2, and 10% DMSO (v/v, test compound solvent) at 37° C. for 7 minutes. The E. coli membrane substrate is then added (0.1 mM phospholipid, 0.005 μCi ^14 C) and the reaction is then incubated at 37° C. for 30 minutes. The reaction is then terminated by the addition of 1.9 mL tetrahydrofuran (THF), and the entire solution is applied to a solid-phase extraction column (aminopropyl resin, Analytichem). The column is rinsed with an additional 1 mL of THF. The free fatty acid product of the reaction is then eluted from the column with 1 mL of 2% acetic acid in THF and collected in a scintillation vial. The amount of free fatty acid product is determined by liquid scintillation counting. The amount of inhibition produced by the test compound is calculated by comparing the counts obtained in the presence of the compound to those obtained in its absence (solvent only). Background counts were determined by performing incubations in the absence of enzyme.
Percent inhibition is determined by the equation: [formula]

Question: `O=C(O)/C=C\C(=C\CCc1ccc(C23CC4CC(CC(C4)C2)C3)c(OCc2cc(F)cc(F)c2)c1)c1cccc(C(F)(F)F)c1` [Structure 14s, (2Z),(4Z)-4-(3-Trifluoromethylphenyl)-7-[4-(1-adamantyl)-3-(3,5-difluorobenzyloxy)phenyl]-2,4-heptadienoic acid] was tested. Which inhibition at 100 µM did it give?
Answer: The inhibition at 100 µM was 100%.

Question: `COc1ccc(COc2cc(CC/C=C(/C=C\C(=O)O)c3cccc(C(F)(F)F)c3)ccc2C23CC4CC(CC(C4)C2)C3)cc1` [Structure 14t, (2Z),(4Z)-4-(3-Trifluoromethylphenyl)-7-[4-(1-adamantyl)-3-(4-methoxybenzyloxy)phenyl]-2,4-heptadienoic acid] was tested. Which inhibition at 100 µM did it give?
Answer: Its inhibition at 100 µM is 100%.

Question: For `O=C(O)/C=C\C(=C\CCc1ccc(C23CC4CC(CC(C4)C2)C3)c(OCc2ccccc2)c1)c1cccc(C(F)(F)F)c1` [Structure 14u, (2Z),(4Z)-4-(3-Trifluoromethylphenyl)-7-[4-(1-adamantyl)-3-benzyloxyphenyl]-2,4-heptadienoic acid], which inhibition at 100 µM is on record?
Answer: Its inhibition at 100 µM is 100%.

Question: For `O=C(O)/C=C\C(=C\CCc1ccc(C23CC4CC(CC(C4)C2)C3)c(OCC(=O)O)c1)c1cccc(C(F)(F)F)c1` [Structure 14v, (2Z),(4Z)-4-(3-Trifluoromethylphenyl)-7-[4-(1-adamantyl)-3-(carboxymethoxy)phenyl]-2,4-heptadienoic acid], which inhibition at 100 µM is on record?
Answer: The inhibition at 100 µM was 100%.

same assay, conditions: Table 3, Structure 18 (Type IB); 100 μM; enzyme isolated from human platelets

Question: How did the inhibition at 100 µM turn out when `CC1(C)CCC(C)(C)c2cc(/C=C(/C=C/C(=O)O)c3cccc(C(=O)O)c3)ccc21` [Structure 18a, (2E),(4Z)-4-(3-Carboxyphenyl)-5-(5,6,7,8-tetrahydro-5,5,8,8-tetramethyl-2-naphthalenyl)-2,4-pentadienoic acid] was run?
Answer: Its inhibition at 100 µM is 27%.

Question: With `CC1(C)CCC(C)(C)c2cc3cc(/C=C(/C=C/C(=O)O)c4cccc(C(=O)O)c4)ccc3cc21` [Structure 18b, (2E),(4Z)-4-(3-Carboxyphenyl)-5-(5,6,7,8-tetrahydro-5,5,8,8-tetramethyl-2-anthracenyl)-2,4-pentadienoic acid] as the compound, how does the inhibition at 100 µM read?
Answer: Its inhibition at 100 µM is 100%.

Question: `CCCCCOc1ccc(/C=C(/C=C/C(=O)O)c2cccc(C(=O)O)c2)cc1OCCCCC` [Structure 18c, (2E),(4Z)-4-(3-Carboxyphenyl)-5-(3,4-bispentyloxyphenyl)-2,4-pentadienoic acid] was tested. Which inhibition at 100 µM did it give?
Answer: Its inhibition at 100 µM is 70%.

Question: `CCCCCCCCCCOc1ccc(/C=C(/C=C/C(=O)O)c2cccc(C(=O)O)c2)cc1OCCCCCCCCCC` [Structure 18d, (2E),(4Z)-4-(3-Carboxyphenyl)-5-(3,4-bisdecyloxyphenyl)-2,4-pentadienoic a cid] was tested. Which inhibition at 100 µM did it give?
Answer: Its inhibition at 100 µM is 91%.

Question: How did the inhibition at 100 µM turn out when `CC1(C)CCC(C)(C)c2cc(CC/C=C(/C=C/C(=O)O)c3cccc(C(=O)O)c3)ccc21` [Structure 18e, (2E),(4Z)-4-(3-Carboxyphenyl)-7-(5,6,7,8-tetrahydro-5,5,8,8-tetramethyl-2-naphthalenyl)-2,4-heptadienoic acid] was run?
Answer: Its inhibition at 100 µM is 55%.

same assay, conditions: Table 4, Structure 20 (Type IB); 100 μM; enzyme isolated from human platelets

Question: For `CC1(C)CCC(C)(C)c2cc(CC/C=C(/C=C/C(=O)O)c3cccc(C(F)(F)F)c3)ccc21` [Structure 20a, (2E),(4Z)-4-(3-Trifluoromethylphenyl)-7-(5,6,7,8-tetrahydro-5,5,8,8-tetramethyl-2-naphthalenyl)-2,4-heptadienoic acid], which inhibition at 100 µM is on record?
Answer: Its inhibition at 100 µM is 52%.

Question: With `CC1(C)CCC(C)(C)c2cc(CC/C=C(/C=C/C(=O)O)c3ccc(F)cc3)ccc21` [Structure 20b] as the compound, how does the inhibition at 100 µM read?
Answer: Its inhibition at 100 µM is 73%.

Question: How did the inhibition at 100 µM turn out when `CC1(C)CCC(C)(C)c2cc(CC/C=C(/C=C/C(=O)O)c3cccc(F)c3)ccc21` [Structure 20c, (2E),(4Z)-4-(3-Fluorophenyl)-7-(5,6,7,8-tetrahydro-5,5,8,8-tetramethyl-2-naphthalenyl)-2,4-heptadienoic acid] was run?
Answer: The inhibition at 100 µM was 67%.

Question: `CC1(C)CCC(C)(C)c2cc(CC/C=C(/C=C/C(=O)O)c3ccccc3)ccc21` [Structure 20d, (2E),(4Z)-4-Phenyl-7-(5,6,7,8-tetrahydro-5,5,8,8-tetramethyl-2-naphthalenyl)-2,4-heptadienoic acid] was tested. Which inhibition at 100 µM did it give?
Answer: The inhibition at 100 µM was 62%.

Question: For `COc1ccc(CC/C=C(/C=C/C(=O)O)c2cccc(C(F)(F)F)c2)cc1C12CC3CC(CC(C3)C1)C2` [Structure 20e, (2Z),(4Z)-4-(3-Trifluoromethylphenyl)-7-[3-(1-adamantyl)-4-methoxyphenyl]-2,4-heptadienoic acid], which inhibition at 100 µM is on record?
Answer: The inhibition at 100 µM was 81%.

Question: For `COc1cc(CC/C=C(/C=C/C(=O)O)c2cccc(C(F)(F)F)c2)ccc1C12CC3CC(CC(C3)C1)C2` [Structure 20f, (2Z),(4Z)-4-(3-Trifluoromethylphenyl)-7-[4-(1-adamantyl)-3-methoxyphenyl]-2,4-heptadienoic acid], which inhibition at 100 µM is on record?
Answer: Its inhibition at 100 µM is 90%.

same assay, conditions: Table 6, Structure 40 (Type ID); 100 μm as printed; enzyme isolated from human platelets

Question: Which “% Inhibition of PLA2 AT 100 μm” value does the source give for `CC1(C)CCC(C)(C)c2cc(CC/C=C(/CCC(=O)O)c3cccc(C(F)(F)F)c3)ccc21` [Structure 40, (Z)-4-(3-trifluoromethylphenyl)-7-(5,6,7,8-tetrahydro-5,5,8,8-tetramethyl-2-naphthalenyl)-4-heptenoic acid] here?
Answer: Its value is 79%.
